From US20250281574A1 (priority 2022, published 2025)
“Also recorded” adds a separate entry of the source. Peptide text beside a SMILES is read from it. * marks the point of attachment. Biotin = O=C1N[C@H]2[C@H](CS[C@H]2CCCCC(=O)*)N1; Ahx = NCCCCCC(=O)O

Legend:
[1] = system: C57BL/6 mice challenged with a lethal dose of lipopolysaccharide (LPS); experiment: LPS-induced lung injury mouse model of ARDS, survival; type: in vivo
Method: C57BL/6 mice were pretreated with either 5.76 mg/kg aCT1 peptide, 5.76 mg/kg control peptide, or PBS vehicle control prior to inoculation with a lethal dose (35 mg/kg) of LPS. For FIG. 2A, n=20-22/group and p<0.0001 by Log-rank Mantel-Cox test; for FIG. 2B, n=5-8/group and p<0.001 by Log-rank Mantel-Cox test. Doses are reported as presented dose, with estimated animal body weight of 25 grams.
Studies were undertaken to assess whether delivery of aCT1 to the respiratory tract in animal models of ARDS would reduce epithelial and endothelial breakdown, thereby preserving the air-liquid barrier while preventing fluid accumulation and reducing immune cell infiltration, resulting in the amelioration of ARDS pathology and preserving lung function to improve survival. Using a well characterized mouse model of ARDS, we investigated whether aCT1 applied directly to the lungs could inhibit severe endotoxin induced lung injury. C57BL/6 mice were intranasally challenged with a lethal dose of lipopolysaccharide (LPS) and were treated with aCT1 immediately prior to LPS administration (FIG. 2A), or six (6) hours post LPS exposure (FIG. 2B).

[2] = system: cecal ligation and puncture (CLP) mouse model of sepsis; experiment: Cecal ligation and puncture (CLP) mouse model of sepsis; type: in vivo
Description: 3A. For FIG. 3A, n=7-9/group and p=0.052 by Log-rank Mantel-Cox test; for FIG. 3B, n=8/group and p<0.05 by Log-rank Mantel-Cox test. Doses are reported as administered dose, with estimated animal body weight of 25 grams.
Representative images are shown.

[3] = system: normal human bronchial epithelial (NHBE) cells; experiment: Trans-epithelial electrical resistance (TER) after H2O2 exposure; type: cell-based; details: NHBE monolayers; aCT1 pre-treatment; 500 mM H2O2; 72 hours
Method: (n=3/group; p-values reported at 72 hours compared to H2O2).
(§1) To determine if aCT1 treatment preserves junctional integrity in human lung cells, human bronchial epithelial cells (NHBEs) were grown as confluent monolayers on Transwell inserts and trans-epithelial electrical resistance (TER) recorded. TER readings measure electrical resistance across a cell monolayer and provide a quantitative metric of intercellular junction integrity.

[4] = system: normal human bronchial epithelial (NHBE) cells; experiment: Trans-epithelial electrical resistance (TER) after LPS exposure; type: cell-based; details: aCT1 pre-treatment, 10 μg LPS, 72 hours
Method: Normal human bronchial epithelial (NHBE) cells were exposed to 10 μg LPS. […] (n=3/group; p-values reported at 72 hours compared to LPS).
as §1

[5] = Intravenous (bolus) toxicity in rats; details: rat, in vivo, intravenous administration, read-out: Maximum Tolerated Dose (clinical signs observed)
Method: Intravenous administration (bolus) of aCT1 in rats was well tolerated and a 5 mg/kg dosing level was established as the no-observable-adverse-effect level (NOAEL). Clinical signs were only observed at aCT1 administration levels that are well above the therapeutic range of efficacy, following intravenous administration of aCT1 at ≥10 mg/kg (Maximum Tolerated Dose). The results of these studies uniformly support aCT1 tolerability when delivered locally and systemically via various routes.

[6] = human
Description: (§2) Clinical trials have been undertaken to assess safety of topical delivery of aCT1.

human subjects = system: human subjects
Description: as §2

[7] = system: normal human bronchial epithelial cells (NHBEs); details: NHBEs treated with 100 mM alcohol
[8] = system: ocular corneal injury models; details: cited from earlier work

For `CC[C@H](C)[C@H](NC(=O)[C@H](CCC(=O)O)NC(=O)[C@H](CC(C)C)NC(=O)[C@H](CC(=O)O)NC(=O)[C@H](CC(=O)O)NC(=O)[C@@H]1CCCN1C(=O)[C@H](CCCNC(=N)N)NC(=O)[C@@H]1CCCN1C(=O)[C@H](CCCNC(=N)N)NC(=O)[C@H](CCCCN)NC(=O)[C@H](CCCCN)NC(=O)[C@H](Cc1c[nH]c2ccccc12)NC(=O)[C@@H]1CCCN1C(=O)[C@H](CCCCN)NC(=O)[C@H](CCCNC(=N)N)NC(=O)[C@H](CCCNC(=N)N)NC(=O)[C@H](CC(N)=O)NC(=O)[C@@H]1CCCN1C(=O)[C@H](Cc1ccccc1)NC(=O)[C@H](Cc1c[nH]c2ccccc12)NC(=O)[C@@H](NC(=O)[C@H](CCCCN)NC(=O)[C@@H]1CCCN1C(=O)[C@H](CCC(N)=O)NC(=O)[C@H](CCCNC(=N)N)NC(=O)CCCCCNC(=O)CCCC[C@@H]1SC[C@@H]2NC(=O)N[C@@H]21)[C@@H](C)CC)C(=O)O` [aCT1] ({Biotin-Ahx}-RQPKIWFPNRRKPWKKRPRPDDLEI-OH; N-terminus and C-terminus assumed), the survival ([1]; lethal LPS 35 mg/kg intranasal, 5.76 mg/kg aCT1 intranasal immediately prior to LPS, p<0.0001 Log-rank) was “provides significant protection against lipopolysaccharide (LPS)-induced mortality; also recorded: significantly improved survival”, the survival ([1]; lethal LPS, aCT1 six hours post LPS, p<0.001 Log-rank) was “provides significant protection against lipopolysaccharide (LPS)-induced mortality; also recorded: significantly improved survival” and the “immune cell infiltration and alveolar edema (H&E lung histopathology)” value ([2]; 14.34 mg/kg aCT1 immediately after CLP, lungs at 12 hours post CLP) was “significantly decreased immune cell infiltration and alveolar edema”. For the same compound, the survival ([2]; 14.34 mg/kg aCT1 intravenously immediately after CLP, p=0.052 Log-rank) was “prolonged survival”, the survival ([2]; aCT1 intravenously 6 hours post CLP, p<0.05 Log-rank) was “prolonged survival” and the “TER / intercellular junction integrity” value [3] was “stabilized intercellular junctions; also recorded: significantly increased TER readings”. For the same compound, the “TER / barrier integrity” value [4] was “stabilized barrier integrity; also recorded: significantly improved TER readings”, the MTD [5] was ≥ 10 mg/kg and the half-life [6] was 15 to 20 min. For the same compound, the “immunogenicity (anti-aCT1 antibodies)” value (human subjects; any preclinical study or clinical trial) was “not immunogenic”, the systemic exposure (human subjects; pharmacokinetic studies in clinical trials, topical) was “no systemic exposure” and the “drug related adverse events” value (human subjects; topical delivery, over 482 human subjects) was “no drug related adverse events”. For the same compound, the “electrical resistance (barrier function)” value [7] was “improved electrical resistance” and the inflammatory signaling molecules [8] was “reduced inflammatory signaling molecules such as IL-6, IL-1β, TNFα, Cox-2, MMP-9, and VEGF”.
